Test results reported in the supplement of paper PMC10307832.

Assays:
Test in all cases: relative viability (nuclei count vs DMSO), 5 days (fraction); higher = more cells survive
HOP-62 = system: HOP-62
Method in brief: (§1)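 Relative viability divides the nuclei count in treated wells by that in vehicle wells. Lung cancer cell lines were seeded in 1536-well plates, dosed by pin tool the next day, and fixed and stained after 5 days in one step with final 0.05% Triton X-100, 1% formaldehyde and 1 ug/ml Hoechst. Dosing was a single drug or a fixed anchor-drug dose plus five library-drug doses (not always all listed) in √10 steps, and values are medians of duplicate plates imaged at 4×.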

NCI-H1299 = system: NCI-H1299
Method in brief: as §1

A549 = system: A549
Method in brief: as §1

UMC-11 = system: UMC-11
Method in brief: as §1

Calu-6 = system: Calu-6
Method in brief: as §1

IA-LM = system: IA-LM
Method in brief: as §1

EBC-1 = system: EBC-1
Method in brief: as §1

NCI-H23 = system: NCI-H23
Method in brief: as §1

ABC-1 = system: ABC-1
Method in brief: as §1

NCI-H2009 = system: NCI-H2009
Method in brief: as §1

NCI-H322M = system: NCI-H322M
Method in brief: as §1

NCI-H1703 = system: NCI-H1703
Method in brief: as §1

NCI-H1355 = system: NCI-H1355
Method in brief: as §1

Structure (SMILES): COCC1(CO)C(=O)C2CCN1CC2 (stereo not drawn) [PRIMA-1MET] + C[C@]1(O)C[C@@H](c2nc(-c3ccc4ccc(-c5ccccc5)nc4c3)c3c(N)nccn32)C1 [Linsitinib] (partner 1 µM)
- relative viability (HOP-62; first compound 0.2 µM): 1.08
- relative viability (HOP-62; first compound 0.6325 µM): 0.976
- relative viability (HOP-62; first compound 2 µM): 0.9
- relative viability (HOP-62; first compound 6.325 µM): 0.987
- relative viability (HOP-62; first compound 20 µM): 0.746
- relative viability (NCI-H1299; first compound 0.2 µM): 1.15
- relative viability (NCI-H1299; first compound 0.6325 µM): 0.852
- relative viability (NCI-H1299; first compound 2 µM): 1.01
- relative viability (NCI-H1299; first compound 6.325 µM): 1.05
- relative viability (NCI-H1299; first compound 20 µM): 0.917
- relative viability (A549; first compound 0.2 µM): 0.708
- relative viability (A549; first compound 0.6325 µM): 0.559
- relative viability (A549; first compound 2 µM): 0.281
- relative viability (A549; first compound 6.325 µM): 0.598
- relative viability (A549; first compound 20 µM): 0.403
- relative viability (UMC-11; first compound 0.2 µM): 1.11
- relative viability (UMC-11; first compound 0.6325 µM): 0.887
- relative viability (UMC-11; first compound 2 µM): 1.04
- relative viability (UMC-11; first compound 6.325 µM): 0.97
- relative viability (UMC-11; first compound 20 µM): 0.94
- relative viability (Calu-6; first compound 0.2 µM): 1.02
- relative viability (Calu-6; first compound 0.6325 µM): 0.885
- relative viability (Calu-6; first compound 2 µM): 0.732
- relative viability (Calu-6; first compound 6.325 µM): 0.957
- relative viability (Calu-6; first compound 20 µM): 0.687
- relative viability (IA-LM; first compound 0.2 µM): 0.483
- relative viability (IA-LM; first compound 0.6325 µM): 0.661
- relative viability (IA-LM; first compound 2 µM): 0.358
- relative viability (IA-LM; first compound 6.325 µM): 0.713
- relative viability (IA-LM; first compound 20 µM): 0.573
- relative viability (EBC-1; first compound 0.2 µM): 1.02
- relative viability (EBC-1; first compound 0.6325 µM): 0.972
- relative viability (EBC-1; first compound 2 µM): 0.758
- relative viability (EBC-1; first compound 6.325 µM): 0.9
- relative viability (EBC-1; first compound 20 µM): 0.623
- relative viability (NCI-H23; first compound 0.2 µM): 0.692
- relative viability (NCI-H23; first compound 0.6325 µM): 0.443
- relative viability (NCI-H23; first compound 2 µM): 0.419
- relative viability (NCI-H23; first compound 6.325 µM): 0.416
- relative viability (NCI-H23; first compound 20 µM): 0.113
- relative viability (ABC-1; first compound 0.2 µM): 0.899
- relative viability (ABC-1; first compound 0.6325 µM): 0.958
- relative viability (ABC-1; first compound 2 µM): 0.89
- relative viability (ABC-1; first compound 6.325 µM): 0.833
- relative viability (ABC-1; first compound 20 µM): 0.519
- relative viability (NCI-H2009; first compound 0.2 µM): 1.17
- relative viability (NCI-H2009; first compound 0.6325 µM): 1.09
- relative viability (NCI-H2009; first compound 2 µM): 1.22
- relative viability (NCI-H2009; first compound 6.325 µM): 1.16
- relative viability (NCI-H2009; first compound 20 µM): 0.693
- relative viability (NCI-H322M; first compound 0.2 µM): 0.932
- relative viability (NCI-H322M; first compound 6.325 µM): 0.942
- relative viability (NCI-H322M; first compound 20 µM): 0.862
- relative viability (NCI-H1703; first compound 0.2 µM): 0.25
- relative viability (NCI-H1703; first compound 6.325 µM): 1.29
- relative viability (NCI-H1703; first compound 20 µM): 0.0482
- relative viability (NCI-H1355; first compound 0.2 µM): 0.998
- relative viability (NCI-H1355; first compound 0.6325 µM): 0.796
- relative viability (NCI-H1355; first compound 2 µM): 0.68
- relative viability (NCI-H1355; first compound 6.325 µM): 0.81
- relative viability (NCI-H1355; first compound 20 µM): 0.76

Structure (SMILES): COCC1(CO)C(=O)C2CCN1CC2 (stereo not drawn) [PRIMA-1MET] + CS(=O)(=O)N1CCN(Cc2cc3nc(-c4cccc5[nH]ncc45)nc(N4CCOCC4)c3s2)CC1 [Pictilisib] (partner 1 µM)
- relative viability (HOP-62; first compound 0.2 µM): 0.442
- relative viability (HOP-62; first compound 0.6325 µM): 0.465
- relative viability (HOP-62; first compound 2 µM): 0.368
- relative viability (HOP-62; first compound 6.325 µM): 0.734
- relative viability (HOP-62; first compound 20 µM): 0.392
- relative viability (NCI-H1299; first compound 0.2 µM): 0.956
- relative viability (NCI-H1299; first compound 0.6325 µM): 0.782
- relative viability (NCI-H1299; first compound 2 µM): 0.345
- relative viability (NCI-H1299; first compound 6.325 µM): 0.808
- relative viability (NCI-H1299; first compound 20 µM): 0.0251
- relative viability (A549; first compound 0.2 µM): 0.581
- relative viability (A549; first compound 0.6325 µM): 0.403
- relative viability (A549; first compound 2 µM): 0.497
- relative viability (A549; first compound 6.325 µM): 0.543
- relative viability (A549; first compound 20 µM): 0.421
- relative viability (UMC-11; first compound 0.2 µM): 0.945
- relative viability (UMC-11; first compound 0.6325 µM): 0.759
- relative viability (UMC-11; first compound 2 µM): 0.594
- relative viability (UMC-11; first compound 6.325 µM): 0.825
- relative viability (UMC-11; first compound 20 µM): 0.786
- relative viability (Calu-6; first compound 0.2 µM): 0.945
- relative viability (Calu-6; first compound 0.6325 µM): 0.873
- relative viability (Calu-6; first compound 2 µM): 1.07
- relative viability (Calu-6; first compound 6.325 µM): 0.917
- relative viability (Calu-6; first compound 20 µM): 0.563
- relative viability (IA-LM; first compound 0.2 µM): 0.476
- relative viability (IA-LM; first compound 0.6325 µM): 0.253
- relative viability (IA-LM; first compound 2 µM): 0.355
- relative viability (IA-LM; first compound 6.325 µM): 0.404
- relative viability (IA-LM; first compound 20 µM): 0.326
- relative viability (EBC-1; first compound 0.2 µM): 0.414
- relative viability (EBC-1; first compound 0.6325 µM): 0.381
- relative viability (EBC-1; first compound 2 µM): 0.402
- relative viability (EBC-1; first compound 6.325 µM): 0.434
- relative viability (EBC-1; first compound 20 µM): 0.12
- relative viability (NCI-H23; first compound 0.2 µM): 0.361
- relative viability (NCI-H23; first compound 0.6325 µM): 0.403
- relative viability (NCI-H23; first compound 2 µM): 0.323
- relative viability (NCI-H23; first compound 6.325 µM): 0.334
- relative viability (NCI-H23; first compound 20 µM): 0.138
- relative viability (ABC-1; first compound 0.2 µM): 0.71
- relative viability (ABC-1; first compound 0.6325 µM): 0.5
- relative viability (ABC-1; first compound 2 µM): 0.558
- relative viability (ABC-1; first compound 6.325 µM): 0.669
- relative viability (ABC-1; first compound 20 µM): 0.55
- relative viability (NCI-H2009; first compound 0.2 µM): 0.337
- relative viability (NCI-H2009; first compound 0.6325 µM): 0.68
- relative viability (NCI-H2009; first compound 2 µM): 0.506
- relative viability (NCI-H2009; first compound 6.325 µM): 0.513
- relative viability (NCI-H2009; first compound 20 µM): 0.0085
- relative viability (NCI-H322M; first compound 0.2 µM): 0.543
- relative viability (NCI-H322M; first compound 6.325 µM): 0.492
- relative viability (NCI-H322M; first compound 20 µM): 0.451
- relative viability (NCI-H1703; first compound 0.2 µM): 0.275
- relative viability (NCI-H1703; first compound 2 µM): 0.255
- relative viability (NCI-H1703; first compound 6.325 µM): 0.293
- relative viability (NCI-H1703; first compound 20 µM): 0.0333
- relative viability (NCI-H1355; first compound 0.2 µM): 0.366
- relative viability (NCI-H1355; first compound 0.6325 µM): 0.35
- relative viability (NCI-H1355; first compound 2 µM): 0.308
- relative viability (NCI-H1355; first compound 6.325 µM): 0.36
- relative viability (NCI-H1355; first compound 20 µM): 0.541
